Source: patent publication EP2296651B1, “5-HYDROXYMETHYL-OXAZOLIDIN-2-ONE DERIVATIVES FOR TREATING BACTERIAL INTESTINAL DISEASES” (Actelion Pharmaceuticals Ltd., priority 2008, dated 2009)
Converted amounts (≈) assume the structure as drawn.

Assays:
S. aureus A-798 (MRSA) = test: Broth microdilution MIC, aerobic Gram-positive bacteria; conditions: Staphylococcus aureus, 48 h
[1] = system: C. difficile strain NC 13366; format: cell-based; conditions: 1 and 8 µg/ml; supernatants at day 5; high density stationary phase cultures
E. faecalis H 4060 = test: Broth microdilution MIC, aerobic Gram-positive bacteria; conditions: Enterococcus faecalis, H4060, 48 h
[2] = system: Bacteroides fragilis A-501 B 8039; test: Agar dilution MIC, anaerobic strains; format: cell-based; conditions: A501B8039, 48 h
S. aureus ATCC 29213 = test: Broth microdilution MIC, aerobic Gram-positive bacteria; conditions: Staphylococcus aureus, ATCC29213, 48 h
[3] = system: Bacteroides fragilis A-260 T 9865; test: Agar dilution MIC, anaerobic strains; format: cell-based; conditions: A260T9865, 48 h
[4] = system: C. difficile A-1050 (ATCC 43596); test: Spore formation at sub-MIC concentrations; format: cell-based; conditions: 0.5x the MIC; 4 days anaerobic incubation at 37°C
[5] = system: Bacteroides fragilis A-348 T 8673; test: Agar dilution MIC, anaerobic strains; format: cell-based; conditions: A348T8673, 48 h
[6] = system: Fusobacterium necrophorum A-1260 DSM 20698; test: Agar dilution MIC, anaerobic strains; format: cell-based; conditions: DSM20698, 48 h
C. difficile ATCC 43596 = test: Broth microdilution MIC, anaerobic; format: cell-based, Clostridium difficile; conditions: Clostridioides difficile, ATCC43596, 48h at 37°C, read-out: MIC regarding C. difficile ATCC 43596
[7] = system: Bacteroides ovatus A-991 ATCC 8483; test: Agar dilution MIC, anaerobic strains; format: cell-based; conditions: ATCC8483, 48 h
E. faecium H 7965 = test: Broth microdilution MIC, aerobic Gram-positive bacteria; conditions: Enterococcus faecium, H7965, 48 h
C. perfringens DSM 756 = test: microbe, parasite or virus in culture; format: cell-based; conditions: Clostridium perfringens, DSM756, 48 h, read-out: MIC regarding C. perfringens DSM 756
[8] = system: Clostridium difficile A- 1179 NC 13366; test: Agar dilution MIC, anaerobic strains; format: cell-based; conditions: Clostridioides difficile, A1179NC13366, 48 h
[9] = system: Finegoldia magna A-1254 DSM 20470; test: Agar dilution MIC, anaerobic strains; format: cell-based
E. faecium H 7937 = test: Broth microdilution MIC, aerobic Gram-positive bacteria; conditions: Enterococcus faecium, H7937, 48 h
[10] = system: toxigenic C difficile strain 10465; test: C. difficile hamster model; format: in vivo, Golden Syrian hamsters
Description: Golden Syrian hamsters were given a single injection of clindamycin phosphate (10 mg/kg s.c.), and a day later animals were infected by gavage with 10^5 CFU of toxigenic C difficile strain 10465. A fulminant colitis results in the majority (∼95%) of animals and develops 1 to 2 days after the administration of C. difficile. Untreated, the colitis progresses rapidly and turns into severe colitis, hemorrhagic necrosis of the cecum and death. The compound of Example 1 was administered orally as a suspension at three dosage levels (10 mg/kg, 30 mg/kg and 100 mg/kg; n = 10 per group). Vancomycin (50 mg/kg) was used as a control. Animals were treated once daily for 5 days and afterwards maintain under observation for an additional 21 days.
The animals were observed three times daily for morbidity and presence or absence of diarrhoea. The final endpoint of the study was survival. Animals judged to be in a moribund state [extended period of weight loss progressing to an emaciated state, anorexia for 24-48 h, prolonged lethargy (more than 3 days), signs of paralysis, skin erosions or trauma, hunched posture, distended abdomen] were euthanized by a single injection of sodium pentobarbital.

[11] = system: Bacteroides vulgatus A-989 ATCC 8482; test: Agar dilution MIC, anaerobic strains; format: cell-based; conditions: Phocaeicola vulgatus, ATCC8482, 48 h
[12] = system: Bacteroides fragilis A-502 T 7403; test: Agar dilution MIC, anaerobic strains; format: cell-based; conditions: A502T7403, 48 h
E. faecium L1 (LZD-R) = test: Broth microdilution MIC, aerobic Gram-positive bacteria; conditions: Enterococcus faecium, 48 h
E. faecium ATCC 19434 = test: as above; conditions: Enterococcus faecium, ATCC19434, 48 h
E. faecium H 7969 = test: as above; conditions: Enterococcus faecium, H7969, 48 h
[13] = system: S. aureus ATCC 43300 (MRSA); test: as above; conditions: Staphylococcus aureus, 48 h
E. faecalis H 7460 = test: as above; conditions: Enterococcus faecalis, H7460, 48 h
E. faecium H 9070 = test: as above; conditions: Enterococcus faecium, H9070, 48 h
[14] = system: Bacteroides fragilis A-217 B 6306; test: Agar dilution MIC, anaerobic strains; format: cell-based; conditions: A217B6306, 48 h
E. faecalis ATCC 29212 = test: Broth microdilution MIC, aerobic Gram-positive bacteria; conditions: Enterococcus faecalis, ATCC29212, 48 h
C. difficile ATCC 9689 = test: Broth microdilution MIC, anaerobic; format: cell-based, Clostridium difficile; conditions: Clostridioides difficile, ATCC9689, 48h at 37°C, read-out: MIC regarding C. difficile ATCC 9689
[15] = 100 mg/kg orally once daily for 5 days

Q: How did the MIC (S. aureus A-798 (MRSA)) turn out when `O=C(O)c1cn(C2CC2)c2cc(N3CCC(O)(COc4ccc(N5C[C@H](CO)OC5=O)cc4F)CC3)c(F)cc2c1=O` [Example 1, 1-cyclopropyl-6-fluoro-7-{4-[2-fluoro-4-((R)-5-hydroxymethyl-2-oxo-oxazolidin-3-yl)-phenoxymethyl]-4-hydroxy-piperidin-1-yl}-4-oxo-1,4-dihydro-quinoline-3-carboxylic acid] was run?
A: The MIC was 0.25 µg/mL (≈ 0.427 µM).

Q: What about the “de novo toxin A production” value [1] of the same molecule?
A: The value was “inhibited de novo toxin A production”.

Q: What about the MIC (E. faecalis H 4060) of the same molecule?
A: The MIC was 0.25 µg/mL (≈ 0.427 µM).

Q: And the MIC [2]?
A: The MIC was 4 µg/mL (≈ 6.83 µM).

Q: And the MIC (S. aureus ATCC 29213)?
A: The MIC was 0.25 µg/mL (≈ 0.427 µM).

Q: What about the MIC [3] of the same molecule?
A: Its MIC is 4 µg/mL (≈ 6.83 µM).

Q: And the “spores of total cell count” value [4]?
A: Its value is under 1%.

Q: What about the MIC [5] of the same molecule?
A: The MIC was 2 µg/mL (≈ 3.42 µM).

Q: What about the MIC [6] of the same molecule?
A: The MIC was 1 µg/mL (≈ 1.71 µM).

Q: And the MIC (C. difficile ATCC 43596)?
A: The MIC was 0.125 µg/mL (≈ 0.213 µM).

Q: What about the MIC [7] of the same molecule?
A: The MIC was 16 µg/mL (≈ 27.3 µM).

Q: What about the MIC (E. faecium H 7965) of the same molecule?
A: Its MIC is 0.5 µg/mL (≈ 0.854 µM).

Q: What about the MIC (C. perfringens DSM 756) of the same molecule?
A: The MIC was at most 0.03 µg/mL.

Q: What about the MIC [8] of the same molecule?
A: Its MIC is at most 0.06 µg/mL.

Q: What about the MIC ([9]; DSM20470, 48 h, Finegoldia magna A-1254, DSM 20470) of the same molecule?
A: The MIC was 0.25 µg/mL (≈ 0.427 µM).

Q: What about the “less activity against Finegoldia magna A-1254 compared to the compound of Example 5 of WO 2005/058888” value ([9]; versus R1) of the same molecule?
A: The value was 4 times.

Q: And the MIC (E. faecium H 7937)?
A: Its MIC is 0.25 µg/mL (≈ 0.427 µM).

Q: What about the “survival during the 5 day treatment period” value ([10]; 10 mg/kg orally once daily for 5 days) of the same molecule?
A: Its value is “all”.

Q: What about the “survival during the 5 day treatment period” value ([10]; 30 mg/kg orally once daily for 5 days) of the same molecule?
A: The value was “all”.

Q: And the “animals survived without relapse, relapse phase of 21 days after treatment” value [10, 15]?
A: The value was 100%.

Q: What about the “survival during the 5 day treatment period” value [10, 15] of the same molecule?
A: The value was “all”.

Q: What about the MIC [11] of the same molecule?
A: Its MIC is 2 µg/mL (≈ 3.42 µM).

Q: And the MIC [12]?
A: Its MIC is 4 µg/mL (≈ 6.83 µM).

Q: What about the MIC (E. faecium L1 (LZD-R)) of the same molecule?
A: The MIC was 2 µg/mL (≈ 3.42 µM).

Q: What about the MIC (E. faecium ATCC 19434) of the same molecule?
A: Its MIC is 0.25 µg/mL (≈ 0.427 µM).

Q: What about the MIC (E. faecium H 7969) of the same molecule?
A: Its MIC is 1 µg/mL (≈ 1.71 µM).

Q: And the MIC [13]?
A: Its MIC is 0.25 µg/mL (≈ 0.427 µM).

Q: What about the MIC (E. faecalis H 7460) of the same molecule?
A: Its MIC is 1 µg/mL (≈ 1.71 µM).

Q: And the MIC (E. faecium H 9070)?
A: Its MIC is 1 µg/mL (≈ 1.71 µM).

Q: And the MIC [14]?
A: The MIC was 4 µg/mL (≈ 6.83 µM).

Q: And the MIC (E. faecalis ATCC 29212)?
A: The MIC was 0.25 µg/mL (≈ 0.427 µM).

Q: What about the MIC (C. difficile ATCC 9689) of the same molecule?
A: Its MIC is 0.125 µg/mL (≈ 0.213 µM).
